Holding throughout (type): cell-based, human
For one assay, the system named is T-iPS-T cells. The assay is described as follows: Feeder-free culture of T-iPS-T cells, FACS count of PI-negative cells and CD45RA(+)CCR7(+) cells. The note with it: 6 days; for Number of CD45RA+CCR7+ cells: DMSO 3891 ± 3170; for Cell number: DMSO 16096 ± 10785. Here is the method: After washing, the cells were resuspended in the staining solution containing PI. Half the amount was analyzed using a BD LSR Fortessa cytometer (BD Bioscience) equipped with HTS, and all cells were recorded.
The concentration dependence of the bisbenzylisoquinoline alkaloid represented by the formula (X-1) or the formula (X-2) in feeder-free proliferation of T-iPS-T cells was examined. T-iPS-T cells were cultured using alpha-MEM medium supplemented with 15% FBS, 1% PSG, PAA (50 μg/mL), ITS-G, IL-7 (5 ng/mL), IL-12 (50 ng/mL), IL-15 (5 ng/mL), IL-18 (50 ng/mL), IL-21 (20 ng/mL), and z-VAD-fmk (10 μM).
The effect on culturing of T-iPS-T cells was evaluated by comparing a known compound that contributes to the proliferation of memory T cells with berbamine. […] DMSO (0.1%) that is a solvent for the compound was used as a control.
The number of events of PI-negative cells and the number of events of CD45RA(+)CCR7(+) cells in the PI-negative cells, which were analyzed by FlowJo 9, were used as data. Note that in a statistical analysis, a Student's t-test was used (*: p<0.05).
The effect of the combined use of berbamine with a MAPK cascade inhibitor on the proliferation of memory T cells was examined. […] The final concentration of each compound was set to 1 μM. DMSO (0.1%) that is a solvent for the compound was used as a control.
The number of events (#Cells) of CD45RA(+)CCR7(+) cells in the PI-negative cell population analyzed by FlowJo 9 was plotted and graphed. Note that in a statistical analysis, a Student's t-test was used (*: p<0.05, **P<0.01, ***P<0.001, ****P<0.0001).

A further assay has as its system stem cell memory T cells. The experiment in a line: Proliferation of sorted stem cell memory T cells, trypan blue count. The note with it: 1 μM, stem cell memory T cells, 6, 9, 12 and 14 days, FIG. 18C. An excerpt:
NPL 4 reports that hierarchy exists in T cells (FIG. 18A). In this Example, a fraction in which berbamine acts in T cells was verified. As a method therefor, PBMCs (CTL, Inc.) derived from a healthy subject was washed with a staining solution (PBS containing 2% FBS), and then stained with CCR7-APC (BioLegend, 353214), CD45RA-BV510 (BioLegend, 304142), CD45RO-APC-Cy7 (BioLegend, 307228), CD95-PC-Cy7 (BioLegend, 305622), CD8β-PE (Beckman, IM2217U), and CD4-BV421 (BioLegend, 317434).
After washing, the cells were resuspended in the staining solution containing PI, and by using BD AriaII Cell Sorter (BD Bioscience), in the CD8β(+) cells, CCR7(+)CD45RA(+)CD95(−)CD45RO(−) was sorted as naive T cells, CCR7(+)CD45RA(+)CD95(+)CD45RO(+) was sorted as stem cell memory T cells, CCR7(+)CD45RA(−)CD45RO(+) was sorted as central memory T cells, and CCR7(−) CD45RA(−)CD45RO(+) was sorted as effector memory T cells.
The respective cells (about 3,000 cells/well) were seeded, and berbamine (BBM) at 1 μM or MilliQ water that is a solvent for the compound as a control was added thereto, and the cells were stimulated with CD3/CD28 Dynabeads (about 9,000 beads/well). The cells were cultured using the same culture medium as in Example 6.
After 6, 9, 12, and 14 days of culturing, the number of viable cells was counted by a trypan blue method. In a statistical analysis, a Student's t-test was used (*: p<0.05).

For a further assay, the system named is NK cells. The experiment in a line: Proliferation of NK cells purified from PBMCs, trypan blue count. The note with it: 1 μM, 14 days, NK cells of 3 donors, FIG. 20(C). An excerpt: The effect of berbamine on NK cells was examined. As a method therefor, NK cells were purified from PBMCs (CTL, Inc.) derived from 3 healthy donor subjects using NK Cell Isolation Kit, human (Miltenyi, 130-092-657).
The NK cells before and after purification were washed with a staining solution (PBS containing 2% FBS) and then stained with CD56-FITC (BioLegend, 362546) and CD3-APC-Cy7 (BioLegend, 300318).
After washing, the cells were resuspended in the staining solution containing propidium iodide and measured using a BD FACSCanto II Flow Cytometer (BD Bioscience). The ratios of CD3(−) and CD56(+) cells in the PI-negative cell population analyzed by FlowJo 10 were confirmed.
As shown in FIG. 20(B), the ratios of CD3(−) and CD56(+) cells showing NK cells were 90% or more, which were sufficient. The purified NK cells (37,000 cells/well) were seeded, and cultured using MEM Alpha medium (Gibco, 12571-063) supplemented with 15% FBS (Biological Industries, 04-001-1A), L-Ascorbic Acid 2-Phosphate Sesquimagnesium Salt Hydrate (L-asc-2P, 50 μg/mL, nacalai tesque, 13570-66), ITS-G, IL-7 (10 ng/mL), and IL-15 (5 ng/mL).
To the culture medium, berbamine (BBM) at 1 μM or MilliQ water that is a solvent for the compound as a control was added, and after culturing for 14 days, the number of viable cells was counted by a trypan blue method.

The values that follow come from patent publication US12168781B2, “Production method for T cells or NK cells, medium for culturing T cells or NK cells, method for culturing T cells or NK cells, method for maintaining undifferentiated state of undifferentiated T cells, and growth-accelerating agent for T cells or NK cells” (KIRIN HOLDINGS KABUSHIKI KAISHA, priority 2018, dated 2024).

Structures are written as SMILES.

As to `COc1cc2c3cc1Oc1c(OC)c(OC)cc4c1[C@@H](Cc1ccc(O)c(c1)Oc1ccc(cc1)C[C@@H]3N(C)CC2)N(C)CC4` [berbamine], the “Number of CD45RA+CCR7+ cells” value in the assay on T-iPS-T cells (1 nM) is listed as 5761 ± 4045; in the assay on T-iPS-T cells (3 nM), 5667 ± 4255; in the assay on T-iPS-T cells (10 nM), 6186 ± 3617; with T-iPS-T cells (30 nM), 7186 ± 4180 *; in the assay with T-iPS-T cells (100 nM) it was 10224 ± 3801 **; in the assay on T-iPS-T cells (300 nM), 12034 ± 6515 *. The “Number of CD45RA+CCR7+ cells” value is 12957 ± 9483 with T-iPS-T cells (1 μM), 13552 ± 10355 in the assay with T-iPS-T cells (3 μM) and 5650 ± 8552 with T-iPS-T cells (10 μM). Moreover, the Cell number in the assay with T-iPS-T cells (1 nM) is 18397 ± 10723; with T-iPS-T cells (3 nM), 19540 ± 11587; in the assay with T-iPS-T cells (10 nM), 24672 ± 10675 **; in the assay with T-iPS-T cells (30 nM) it was 30885 ± 12249 **; in the assay on T-iPS-T cells (100 nM), 48026 ± 6597 **; in the assay on T-iPS-T cells (300 nM) it was 54888 ± 5691 **. For the same compound, the Cell number in the assay on T-iPS-T cells (1 μM) is on record as 43432 ± 23926; in the assay on T-iPS-T cells (3 μM), 43656 ± 29882; in the assay on T-iPS-T cells (10 μM), 20559 ± 34130. Also, in the assay on T-iPS-T cells (1 μM, FIG. 7), the “number of CD45RA(+)CCR7(+) cells, rank among the 266 compounds” value is given as “highest number of CD45RA(+)CCR7(+) cells”. Besides, the “proliferation of T-iPS-T cells (PI-negative cells and CD45RA(+)CCR7(+) cells) vs DMSO” value in the assay with T-iPS-T cells (1 μM, FIG. 12) is listed as “significant proliferation effect”. Besides, in the assay on T-iPS-T cells (each compound 1 μM, FIG. 13), the “number of CD45RA(+)CCR7(+) cells compared with DMSO” value is “significant cell proliferation”. In the assay on stem cell memory T cells, the “number of viable cells compared with MilliQ water” value is on record as “significant enhancement of cell proliferation”. In the assay on NK cells, the “number of NK cells compared with MilliQ water” value is listed as “increase in the number of NK cells”.
